Source: patent publication US20240183860A1, “Chimeric ABC Transporters and Screening Methods” (Genentech, Inc., priority 2021, published 2024)
Bridge positions count the residues as written; N and C are the ends. Square brackets hold non-standard residues; d marks the D form. Peptide text beside a SMILES is read from it. Bip = N[C@@H](Cc1ccc(-c2ccccc2)cc1)C(=O)O; NMeF = CN[C@@H](Cc1ccccc1)C(=O)O

Columns and labels:
[1] = target: T1, EcMsbA-chim5 (MsbA-chimera5) (Escherichia coli, UniProt P60752, D53T/D54Y/D60K/DEL268-292/DEL57-57/F265A/G55I/I169L/INS266[…]/INS66P/K49D/K58D/L171A/L263V/L51V/L52I/M159V/M67L/P68V/S164D/S62H/T59E/V63D/Y163E); assay: biochemical; format: biochemical; conditions: ATPase; FIGS. 11D-E
T1 construct: FLAG (N); made in house; host or cells: E. coli Rosetta 2 (DE3), pET-52b vector
Experimental: (§1) The ATPase activity of MsbA was measured using a Transcreener ADP2 FP Assay (BellBrook Labs). […] The final condition for the reaction was MsbA enzyme, 50 μM ATP in 50 mM Tris pH 7.5, 10 mM MgCl2, 1% glycerol, 0.1% bovine gamma globulin, 1 mM dithiothreitol (DTT), 0.007% Brij-35 and 0.5% dimethylsulfoxide (DMSO). The following concentrations were used for each MsbA variant: 5 nM of EcMsbA, EnMsbA, KpMsbA and 80 nM PaMsbA reconstituted in amphipol, 15 nM EcMsbA and EcMsbA-chim5 in LMNG detergent, 22 nM EcMsbA and 27 nM EcMsbA-12G7 complex in aDDM detergent. The enzyme reaction was incubated for 1 hour at room temperature, then quenched by adding the Transcreener Detection Buffer. The IC50 was determined by fitting the inhibition dose-response curve with a nonlinear four-parameter inhibition model (GraphPad Prism).

[2] = target: T2, EcMsbA-chim5 (MsbA-chimera5) (Escherichia coli, UniProt P60752, D53T/D54Y/D60K/DEL268-292/DEL57-57/F265A/G55I/I169L/INS266IAYAGNRVIHEDMRSGALIAFIAAL/INS66P/K49D/K58D/L171A/L263V/L51V/L52I/M159V/M67L/P68V/S164D/S62H/T59E/V63D/Y163E); assay: biochemical; format: biochemical
T2 construct: FLAG (N); made in house; host or cells: E. coli Rosetta 2 (DE3), pET-52b vector
Experimental: as §1

[3] = target: T3, Pseudomonas aeruginosa MsbA (PaMsbA) (Pseudomonas aeruginosa, UniProt Q9HUG8); assay: MsbA ATPase assay, amphipol-reconstituted homologue; format: biochemical
T3 construct: FLAG; made in house; host or cells: not restated ('similarly expressed')
T3 sequence (Q9HUG8 1-603): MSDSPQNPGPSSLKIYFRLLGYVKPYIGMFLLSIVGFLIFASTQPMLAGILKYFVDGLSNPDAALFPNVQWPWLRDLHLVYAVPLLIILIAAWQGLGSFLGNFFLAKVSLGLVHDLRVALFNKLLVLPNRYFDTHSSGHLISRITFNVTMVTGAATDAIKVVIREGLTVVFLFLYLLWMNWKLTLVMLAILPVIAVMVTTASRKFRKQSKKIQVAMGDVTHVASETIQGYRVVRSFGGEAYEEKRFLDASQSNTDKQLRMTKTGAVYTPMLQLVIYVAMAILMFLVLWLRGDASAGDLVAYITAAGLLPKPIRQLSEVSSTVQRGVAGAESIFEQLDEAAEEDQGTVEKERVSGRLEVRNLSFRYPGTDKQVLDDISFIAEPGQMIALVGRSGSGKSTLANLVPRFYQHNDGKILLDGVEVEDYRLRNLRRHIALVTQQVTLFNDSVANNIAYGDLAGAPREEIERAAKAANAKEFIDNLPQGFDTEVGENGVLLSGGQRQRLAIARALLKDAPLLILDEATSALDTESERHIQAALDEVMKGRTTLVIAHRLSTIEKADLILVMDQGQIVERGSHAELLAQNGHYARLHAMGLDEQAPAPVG
Experimental: as §1

E. coli MsbA (EcMsbA) = target: T4, E. coli MsbA (EcMsbA) (Escherichia coli, UniProt P60752); assay: MsbA ATPase assay (Transcreener ADP2 FP); format: biochemical
T4 construct: FLAG (N); made in house; host or cells: E. coli (strain for the WT protein not restated)
Experimental: as §1

[4] = tested on: imp E. coli (lptD(imp4213)), E. coli MsbA; assay: Broth MIC assay; format: cell-based, Escherichia coli; conditions: Table 5 prints no unit; μM
Experimental: Broth MICs were determined in cation-adjusted Mueller-Hinton broth with 0.002% Tween-80, as previously described (Ho et al., 2018).

[5] = tested on: WT E. coli cells with an intact outer membrane (CFT073, UPEC WT); assay: Cellular IC50 determination (BacTiter-Glo, 6 hours); format: cell-based, Escherichia coli
Experimental: The cellular IC50's of various bacterial strains (Table 2) were determined.
200 nL aliquots of eight 2-fold dilutions of each compound were dispensed in duplicate into 384-well plates using an Echo Liquid Handler (Labcyte). Strains were grown in cation-adjusted Mueller Hinton Broth with 0.002% Tween overnight for 16 hours, washed with PBS, resuspended at OD600=1 in cation-adjusted Mueller Hinton Broth with 0.002% Tween and 10% glycerol, and frozen in […] aliquots. For each experiment, aliquots were thawed on ice and diluted 1:1000 into cation-adjusted Mueller Hinton Broth with 0.002% Tween. 10 μL cells/well were added to 384-well plates containing compound. Plates were incubated for 6 hours at 37° C., then 10 μL BacTiter-Glo reagent (Promega) was added to each well and luminescence was measured. IC50's were calculated using Genedata Screener software.

[6] = target: T5, E. coli MsbA-chimera5 (chimera of Escherichia coli MsbA and Magnetospira strain-QH-2 MsbA), P60752; assay: cell-based or functional assay
T5 chain: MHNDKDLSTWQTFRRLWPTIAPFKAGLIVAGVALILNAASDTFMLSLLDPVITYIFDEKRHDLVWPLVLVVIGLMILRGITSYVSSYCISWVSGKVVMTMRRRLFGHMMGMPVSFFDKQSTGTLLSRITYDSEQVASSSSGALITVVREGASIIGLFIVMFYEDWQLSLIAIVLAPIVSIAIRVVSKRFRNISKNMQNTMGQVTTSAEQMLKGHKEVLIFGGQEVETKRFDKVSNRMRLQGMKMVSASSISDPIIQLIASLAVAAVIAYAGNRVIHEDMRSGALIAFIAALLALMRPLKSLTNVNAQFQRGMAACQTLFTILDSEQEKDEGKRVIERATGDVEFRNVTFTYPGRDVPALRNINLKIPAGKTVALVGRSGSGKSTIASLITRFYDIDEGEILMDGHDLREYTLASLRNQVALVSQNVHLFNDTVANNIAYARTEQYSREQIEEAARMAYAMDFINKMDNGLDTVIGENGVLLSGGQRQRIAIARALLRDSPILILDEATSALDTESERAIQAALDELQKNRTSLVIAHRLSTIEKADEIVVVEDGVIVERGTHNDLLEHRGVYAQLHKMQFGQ

[7] = target: Klebsiella pneumoniae MsbA (Klebsiella pneumoniae); assay: cell-based or functional assay
[8] = target: Enterobacter cloacae MsbA (Enterobacter cloacae); assay: cell-based or functional assay
[9] = target: T6, Pseudomonas aeruginosa MsbA (Pseudomonas aeruginosa), Q9HUG8; assay: cell-based or functional assay
T6 chain: T3 sequence (Q9HUG8 1-603)

[10] = target: T7, Escherichia coli MsbA (wild-type) (Escherichia coli), P60752; assay: cell-based or functional assay
T7 chain: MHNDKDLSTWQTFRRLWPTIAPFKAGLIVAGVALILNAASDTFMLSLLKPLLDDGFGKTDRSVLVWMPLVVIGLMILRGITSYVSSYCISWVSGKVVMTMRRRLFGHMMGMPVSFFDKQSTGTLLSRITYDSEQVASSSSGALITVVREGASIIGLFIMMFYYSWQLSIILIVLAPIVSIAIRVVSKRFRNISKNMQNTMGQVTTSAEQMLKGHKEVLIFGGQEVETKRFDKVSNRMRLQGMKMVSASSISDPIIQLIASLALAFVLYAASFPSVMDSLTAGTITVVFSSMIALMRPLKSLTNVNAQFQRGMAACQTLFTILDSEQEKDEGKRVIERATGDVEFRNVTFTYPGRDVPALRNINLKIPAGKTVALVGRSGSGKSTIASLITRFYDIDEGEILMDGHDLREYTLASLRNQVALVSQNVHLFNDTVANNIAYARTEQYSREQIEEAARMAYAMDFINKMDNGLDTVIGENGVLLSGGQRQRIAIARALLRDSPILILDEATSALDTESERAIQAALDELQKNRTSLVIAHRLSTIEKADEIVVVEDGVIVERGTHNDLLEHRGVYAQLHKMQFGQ

CC1CCN(CC(=O)Nc2ccc(C#N)nc2C(=O)c2ncccc2F)CC1 [Compound G758, N-(6-cyano-2-(3-fluoropicolinoyl)pyridin-3-yl)-2-(4-methylpiperidin-1-yl)acetamide, reference compound]
sensitivity of MsbA-chim5 to previously identified small-molecule inhibitors [1]: displayed sensitivity

CC(C)[C@@H]1NC(=O)[C@H](CCCNC(=N)N)NC(=O)[C@H](Cc2ccccc2)N(C)C(=O)[C@H](Cc2ccc(-c3ccccc3)cc2)NC(=O)[C@H](Cc2ccc(O)cc2)NC(=O)[C@H](C(C)C)NC(=O)[C@H](Cc2ccccc2)NC(=O)CSC[C@@H](C(N)=O)NC1=O [Compound G1365, ClAc-FVYBphMeFRVCNH2] ({CH2CO}-FVY[Bip][NMeF]RVC-NH2; thioether N-8)
IC50 [2]: > 5 µM | IC50 [3]: 7.6 µM | IC50 (E. coli MsbA (EcMsbA); ATPase inhibitory activity on WT EcMsbA, IC50, purified WT EcMsbA, FIG. 3D): 1300 nM | IC50 (E. coli MsbA (EcMsbA); biochemical IC50, FIGS. 3G-L, 8-10 mer macrocycle series experiment): 300 nM | imp Strain MICs: imp, E.coli MsbA [4]: 12.5 µM | EC50 ([5]; dose response on imp MsbAWT, imp MsbA High and UPEC WT, b248: EC50 for wild-type E. coli cells, read-out: EC50, FIGS. 3G-L): 20 µM | IC50 ([5]; over the course of 6 hours, read-out: IC50, inhibition of growth of WT E. coli cells with an intact outer membrane): ~20 µM

FWWLWDDVSWWFVC (modifications not checked) [G1118]
IC50, ATPase activity of purified MsbA-chim5 [6]: > 5 µM | fold lower potency than on EcMsbA (ATPase) [6]: > 30 fold | IC50, ATPase activity [7]: 120 nM | IC50, ATPase activity [8]: 240 nM | IC50, ATPase activity [9]: 3.1 µM | IC50, ATPase activity of purified EcMsbA [10]: 110 nM | IC50 for inhibition of ATPase activity of MsbA [10]: 5 nM | minimum inhibitory concentration (MIC), E. coli cells with the lptD(imp4213) allele [10]: 210 µg/mL
